Test results published in patent publication US7517882B2, “Protein kinase inhibitors” (Polaris Group, priority 2006, dated 2009).

Experiments:
human CK2 = target: T1, human CK2 (Homo sapiens, UniProt P68400); assay: CK2 protein kinase inhibition assay (spectrophotometric PK/LDH coupled assay); format: biochemical
T1 construct: Full Length His-tagged Human CK2 was cloned, expressed, and purified; His tag; made in house; host or cells: E. coli
Method: CK2 protein kinase activity was measured through use of a spectrophotometric PK/LDH coupled assay to detect ATP turnover. Full Length His-tagged Human CK2 was cloned, expressed, and purified from an E. coli expression system. The peptide substrate for CK2 phosphorylation was […] (Genscript Corporation, Piscataway, N.J., USA). […] Prior to the addition of ATP to initiate the phosphorylation reaction, CK2 enzyme was pre-incubated with inhibitors and other assay components for 5 min. Progress of the reaction was continuously monitored by the change in UV/Vis absorbance at 340 nm. […] In the case of very potent binding, tight-binding methods were employed to determine Ki.

PC-3 cells = assay: Inhibition of cell growth (MTT), PC-3 cells; details: Homo sapiens, PC-3, 120 h, read-out: IC50 PC-3
Method: (§1) HCT-116 and PC-3 cells were cultured at 37° C. with 5% CO2 and in 10% fetal bovine serum with McCoy's 5A modified medium and F-12 K medium respectively. Cells were plated on 96 well plates at a density of 2,000-4,000/well in the volume of 100 μL medium. […] The control wells contained 1% dimethylsulfoxide only in their medium. After further incubation of three to five days to allow cells grow before the control cells reach confluence, 15 μL/well MTT reagent (5 mg/mL) were added and incubated for 4 h. After the incubation, the medium was removed and the newly generated formazan solubilized with dimethylsulfoxide (100 μL/well) and measured at 540 nm. The absorption data were fit into equation and calculated for IC50 values through use of the program KaleidaGraph (Synergy Software). The fitting equation for IC50 is y=a+b/(1+(x/IC50)); x is the compound concentration, a is the background absorption at 540 nm, and b is the absorption at zero compound concentration.

HCT-116 cells = assay: Inhibition of cell growth (MTT), HCT-116 cells; details: Homo sapiens, HCT-116, 120 h, read-out: IC50 HCT 116 cells
Method: as §1

T1 sequence (P68400 whole entry): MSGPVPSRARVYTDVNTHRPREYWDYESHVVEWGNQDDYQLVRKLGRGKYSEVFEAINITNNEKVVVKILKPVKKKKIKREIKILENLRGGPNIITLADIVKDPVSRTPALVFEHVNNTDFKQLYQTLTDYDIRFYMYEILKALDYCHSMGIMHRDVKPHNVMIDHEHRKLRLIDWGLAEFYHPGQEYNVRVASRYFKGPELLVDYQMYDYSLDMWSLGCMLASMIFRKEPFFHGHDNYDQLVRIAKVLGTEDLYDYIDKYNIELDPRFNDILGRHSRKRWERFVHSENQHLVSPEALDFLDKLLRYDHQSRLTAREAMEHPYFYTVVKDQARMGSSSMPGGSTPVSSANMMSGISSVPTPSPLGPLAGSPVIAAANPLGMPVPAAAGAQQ

Row | SMILES | Ki (human CK2) [nM] | IC50 (PC-3 cells) [nM] | IC50 (HCT-116 cells) [nM]
1 | CCN(CC)C1CCN(C(=O)c2cccc(Nc3nc4nc5c(cnn35)CCCCC(=O)Nc3cccc(c3)N4)c2)C1 (centres unmarked) [Compound 11p, (11,14)3,5N-{[(3-{[3-(diethylamino)pyrrolidin-1-yl]carbonyl}phenyl)amino]-pyrazolo[1,5-a][1,3,5]triazin-4-yl-amino}-(2N,4N)-phenyl-1,5-diaza-cyclotetradeca-8-one] | < 100 | < 1000 | < 1000
2 | CN(C)C1CCN(C(=O)c2cccc(Nc3cc4nc5c(cnn35)CCCCC(=O)Nc3cccc(c3)N4)c2)C1 (centres unmarked) [Compound 18a, (11,14)3,5N-{[(3-Dimethylamino-pyrrolidine-1-carbonyl)-phen-3-yl]-pyrazolo[1,5-a]pyrimidin-2,4-yl-diamino}-(2N,4N)-phenyl-1,5-diaza-cyclotetradecan-6-one] | < 100 | < 3000 | < 3000
3 | O=C1CCCCc2cnn3c(NC4CC4)cc(nc23)Nc2cccc(c2)N1 [Compound 18b] | < 100 | < 3000 | < 3000
4 | CN1CCC(N(C)C(=O)c2cccc(Nc3nc4nc5c(cnn35)CCCCC(=O)Nc3cccc(c3)N4)c2)C1 (centres unmarked) [Compound 11g, (11,14)3,5N-{3-(3-{[methyl(1-methylpyrrolidin-3-yl)amino]carbonyl}phenyl)-pyrazolo[1,5-a][1,3,5]triazin-4-yl-amino}-(2N,4N)-phenyl-1,5-diaza-cyclotetradeca-8-one] | < 100 | < 1000 | < 1000
5 | CCN(CC)C1CN(C(=O)c2cccc(Nc3nc4nc5c(cnn35)CCCCC(=O)Nc3cccc(c3)N4)c2)C1 [Compound 11q, (11,14)3,5N-{[(3-{[3-(diethylamino)azetidin-1-yl]carbonyl}-phenyl)amino]-pyrazolo[1,5-a][1,3,5]triazin-4-yl-amino}-(2N,4N)-phenyl-1,5-diaza-cyclotetradeca-8-one] | < 100 | < 1000 | < 1000
6 | CN1CCC(N(C)C(=O)c2cccc(Nc3nc4nc5c(cnn35)CCCCC(=O)Nc3cccc(c3)N4)c2)CC1 [Compound 11o, (11,14)3,5N-{4-[(3-{[methyl(1-methylpiperidin-4-yl)amino]carbonyl}-phenyl)amino]-pyrazolo[1,5-a][1,3,5]triazin-4-yl-amino}-(2N,4N)-phenyl-1,5-diaza-cyclotetradeca-8-one] | < 100 |  | < 1000
7 | O=C1CCCCc2cnn3c(Nc4cccc(C(=O)N5CC(O)C5)c4)nc(nc23)Nc2cccc(c2)N1 [Compound 11l, (11,14)3,5N-{4-({3-[(3-hydroxyazetidin-1-yl)carbonyl]phenyl}amino)-pyrazolo[1,5-a][1,3,5]triazin-4-yl-amino}-(2N,4N)-phenyl-1,5-diaza-cyclotetradeca-8-one] | < 100 | < 1000 | < 1000
8 | CCOc1cccc(Nc2nc3nc4c(cnn24)CCCCC(=O)Nc2cccc(c2)N3)c1 [Compound 11e, (11,14)3,5N-{(3-ethoxyphenyl)-pyrazolo[1,5-a][1,3,5]triazin-4-yl-amino}-(2N,4N)-phenyl-1,5-diaza-cyclotetradeca-8-one] | < 100 | < 1000 | < 1000
9 | O=C1CCCCc2cnn3c(Nc4cccc(C(=O)N5CCNCC5)c4)nc(nc23)Nc2cccc(c2)N1 [Compound 11r, (11,14)3,5N-{{[3-(piperazin-1-ylcarbonyl)phenyl]amino}-pyrazolo[1,5-a][1,3,5]triazin-4-yl-amino}-(2N,4N)-phenyl-1,5-diaza-cyclotetradeca-8-one] | < 100 |  | < 1000
10 | CN1CCN(C(=O)c2cccc(Nc3nc4nc5c(cnn35)CCCCC(=O)Nc3cccc(c3)N4)c2)CC1 [Compound 11h, (11,14)3,5N-{3-(4-methylpiperazin-1-ylcarbonyl)phenyl-pyrazolo[1,5-a][1,3,5]triazin-4-yl-amino}-(2N,4N)-phenyl-1,5-diaza-cyclotetradeca-8-one] | < 100 | < 1000 | < 1000
11 | O=C1CCCCc2cnn3c(NC4CC4)nc(nc23)Nc2cccc(c2)N1 [Compound 11a, (11,14)3,5N-{cyclopropyl-pyrazolo[1,5-a][1,3,5]triazin-4-ylamino}-(2N,4N)-phenyl-1,5-diaza-cyclotetradeca-8-one] |  | < 1000 | < 1000
12 | O=C1CCCCc2cnn3c(Nc4cccnc4)nc(nc23)Nc2cccc(c2)N1 [Compound 11d, (11,14)3,5N-{pyrid-3-yl-pyrazolo[1,5-a][1,3,5]triazin-4-yl-amino}-(2N,4N)-phenyl-1,5-diaza-cyclotetradeca-8-one] | < 100 | < 1000 | < 1000

Other lines, results leading:

Row | Ki (human CK2) [nM] | IC50 (PC-3 cells) [nM] | IC50 (HCT-116 cells) [nM] | SMILES
13 | < 100 | < 1000 | < 1000 | CN1CC(NC(=O)c2cccc(Nc3nc4nc5c(cnn35)CCCCC(=O)Nc3cccc(c3)N4)c2)C1 [Compound 11m]
14 | < 100 | < 1000 | < 1000 | CCN(CC)C(=O)c1cccc(Nc2nc3nc4c(cnn24)CCCCC(=O)Nc2cccc(c2)N3)c1 [Compound 11j, (11,14)3,5N-{4-[(3-{3-(diethylamino)carbonyl}phenyl)amino]-pyrazolo[1,5-a][1,3,5]triazin-4-yl-amino}-(2N,4N)-phenyl-1,5-diaza-cyclotetradeca-8-one]
15 | < 100 | < 1000 | < 1000 | CN(C)C1CCN(C(=O)c2cccc(Nc3nc4nc5c(cnn35)CCCCC(=O)Nc3cccc(c3)N4)c2)C1 (centres unmarked) [Compound 11i]
16 | < 100 | < 1000 | < 1000 | CN(C)CCN(C)C(=O)c1cccc(Nc2nc3nc4c(cnn24)CCCCC(=O)Nc2cccc(c2)N3)c1 [Compound 11n, (11,14)3,5N-{4-[(3-{[[2-(dimethylamino)ethyl](methyl)-amino]carbonyl}phenyl)amino]-pyrazolo[1,5-a][1,3,5]triazin-4-yl-amino}-(2N,4N)-phenyl-1,5-diaza-cyclotetradeca-8-one]
17 | < 100 | < 1000 | < 1000 | CN(C)CCNC(=O)c1cccc(Nc2nc3nc4c(cnn24)CCCCC(=O)Nc2cccc(c2)N3)c1 [Compound 11k, (11,14)3,5N-{4-{[3-({[2-(dimethylamino)ethyl]-amino}carbonyl)phenyl]amino}-pyrazolo[1,5-a][1,3,5]triazin-4-yl-amino}-(2N,4N)-phenyl-1,5-diaza-cyclotetradeca-8-one]
18 | < 100 |  | < 1000 | CCN(CC)CCN(C)C(=O)c1cccc(Nc2nc3nc4c(cnn24)CCCCC(=O)Nc2cccc(c2)N3)c1 [Compound 11s]
